The values that follow come from PubChem BioAssay AID179 (DTP/NCI, 2004).

Each structure is given as a SMILES string. Values joined by “and” are separate entries in the source; they are usually repeats but may differ in a detail not shown here. Identical values can stand only once. Active and inactive are the calls of the source.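 Rule for the calls: active = compounds giving half or more protection of infected cells from virus-caused growth loss, again on retest; inactive = the rest.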 Bounds are passed on as bounds.

By EC50 is commonly meant the concentration that produces a half-maximal response. Usually IC50 stands for the concentration that gives 50% inhibition. Low values mean inhibition by little substance, high ones a need for much substance.

The test has as its system CEM cells HIV-1 protection, formazan growth assay. Nature of the test: NCI AIDS Antiviral Assay. The conditions noted are these: for IC50: measured here: growth of uninfected CEM cells. In a few lines: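 Human CEM cells, uninfected and HIV-1-infected, received five drug concentrations, and growth was read by soluble formazan assay. Compounds giving at least 50% protection were retested; reproducible 100% protection defined confirmed active.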

With `CC(=O)OCC1OC(OC(C)=O)C(NC#N)C(OC(C)=O)C1OC(C)=O` (configuration not stated), the EC50 is over 676 µM and the IC50 is 61.7 µM.

Take `COc1ccc2c(c1OC)OC1CNc3cc(C)c(C)cc3N=C1C2` (configuration not stated): the EC50 was 1.35 µM and the IC50 amounted to 4.57 µM. Take `Cn1c(=O)c2nc(-c3ccccc3)oc2n(C)c1=O`: the result was inactive.

Consider `O=C1CN(c2ccccc2)C(=O)C1C(=O)Nc1ccc(Cl)c(Cl)c1` (configuration not stated), for which the EC50 was over 3.98 µM and the IC50 was 3.89 µM. With `Cc1ccc2c(c1)NC(=S)N=S2(C)=O` (configuration not stated), the EC50 is over 158 µM and the IC50 was 93.3 µM. For the molecule `O=c1ccnc(SSc2nccc(=O)[nH]2)[nH]1`, the EC50 was over 200 µM and the IC50 was over 200 µM. Take `COc1cc(OC)c2ssc3c(OC)cc(OC)c4ssc1c2-c43`: the EC50 is over 13.2 µM and the IC50 is over 13.2 µM. Regarding `CCCCCC(=O)OCCOCCOCCOCCOCCOCc1ccccc1`, the result was inactive. As to `Cc1oc2nc(N(C)C)n3c(C)nnc3c2c1C`, the outcome was inactive. Take `Cc1cn(CC2=NCC(C)(C)N2)c(=O)[nH]c1=O`: the EC50 is over 200 µM and the IC50 is 93.3 µM. As for `CC1(C)CCC2=C(O1)c1ccccc1C(=O)C2=O`, the EC50 is over 200 µM; the IC50 is 0.912 µM and 1.07 µM.

For `CCc1cccc(C)c1NC(=O)CC1Sc2ccccc2NC1=O` (configuration not stated), the EC50 is over 28.8 µM and the concentration for half-maximal inhibition (IC50) was 17.8 µM. The like results for `O=C1NC2(CCCCC2)C(OCCO)C12CCCCC2` (configuration not stated) were, in that order, over 316 µM and over 316 µM. Turning to `CCN(CC)c1ccc2cc3ccc(=[N+](CC)CC)cc-3oc2c1`, the EC50 was over 501 µM and the IC50 came out at 0.158 µM.

Regarding `O=[N+]([O-])C(=C1NCCN1)/C(Cl)=C(\Cl)Br`, the EC50 was over 200 µM and the half-inhibitory concentration (IC50) was found to be 16.6 µM. Take `Cn1c(=O)c2[nH]c(N=Nc3c(N)n[nH]c3N)nc2n(C)c1=O`: the EC50 was over 200 µM and the IC50 is over 200 µM. As for `CS(=O)(=O)Oc1nn2c(OS(C)(=O)=O)nnc2s1`, the EC50 is over 200 µM and the IC50 worked out at 28.8 µM.

Consider `COc1ccc2c(-c3ccc(O)cc3)c(Oc3ccc(Cl)cc3)c(=O)oc2c1`, for which the EC50 is over 200 µM and the 50% inhibitory concentration (IC50) was found to be 19.1 µM. `CCOC(=O)C(NC(=O)c1ccccc1)(N1CCN(c2cc3c(cc2F)c(=O)c(C(=O)O)cn3C2CC2)CC1)C(F)(F)F` (configuration not stated): the EC50 was over 200 µM and the IC50 is 20.4 µM. Turning to `O=Cc1ccccc1CCn1c(=O)c2cc3c(=O)n(CCc4ccccc4C=O)c(=O)c3cc2c1=O`, the EC50 was over 10.7 µM and the IC50 was over 10.7 µM. In the case of `Cn1c(=O)[nH]c(N2CCOCC2)c(C#N)c1=S`, the EC50 is over 200 µM and the IC50 is over 200 µM. Consider `CC1CCC23COC(=O)C2=CCCC3C1(C)CC/C(=C/CO)CO` (configuration not stated), for which the outcome was inactive. Take `COc1c(Cl)nc2ccccc2c1N=[N+]=[N-]`: the EC50 was over 200 µM and the 50% inhibitory concentration (IC50) worked out at 135 µM. For `COc1ccc(-c2nnc(-c3nsc4ccccc34)o2)cc1`, the EC50 was over 17 µM and the IC50 is over 17 µM.

On to `N#CC(NNC(=O)Cc1ccccc1)c1ccc([N+](=O)[O-])cc1` (configuration not stated), for which the EC50 was over 115 µM and the IC50 was over 115 µM. On to `Cc1nc(-c2nc(C)c(C(=O)NNC(=O)C[n+]3ccccc3)s2)sc1C(=O)NNC(=O)C[n+]1ccccc1`, for which the EC50 was over 57.5 µM and the IC50 was over 57.5 µM. On to `O=C(/C=C/c1ccc(O)c(O)c1)Oc1ccccc1`, for which the EC50 was over 200 µM and the IC50 was 9.33 µM. The like results for `O=C(C=P(c1ccccc1)(c1ccccc1)c1ccccc1)C12CC3CC(CC(C3)C1)C2` were, in that order, over 100 µM and 6.61 µM. For `CC(=O)SC(C[N+](=O)[O-])c1ccc2c(c1)OCO2` (configuration not stated) the same measures were over 200 µM and 3.98 µM. In the case of `NCCN.NCCN.NCCN.O=C([O-])[C@@H](O)[C@@H](O)C(=O)[O-].[Cl-].[Co+3]`, the EC50 is over 100 µM and the IC50 was over 100 µM.

For the molecule `CCCCNC(=O)CNC(=O)c1ccccc1SC(=O)CCCC[n+]1ccccc1`, the EC50 is over 200 µM and the IC50 was found to be 9.33 µM. Take `Cc1cc(=O)n2nc(CN3CCCCC3)sc2n1`: the EC50 was over 200 µM and the concentration for half-maximal inhibition (IC50) was 174 µM. For the molecule `OCCC(N1CCOCC1)C(O)(c1ccccc1)c1ccccc1` (configuration not stated), the EC50 is over 200 µM and the IC50 is over 200 µM. As for `COC(=O)N1[C@@H]2C=CC=CC=C2[C@@H](OC)N1C(=O)OC`, the EC50 is over 158 µM and the IC50 was found to be 89.1 µM. Turning to `COC(=O)CC(=O)OC1C[C@@H]2CCC3C(C)(C)CCC[C@]3(C)C23CC[C@@]1(C)C3` (some centres not stated), the EC50 was over 18.2 µM and the concentration for half-maximal inhibition (IC50) was over 18.2 µM. With `Cc1ccc(C)c(N2C(=O)C(=O)C(c3nc4ccccc4o3)C(=O)C2=O)c1`, the outcome was inactive.

In the case of `O=C1C2CCCC3CCCC(C(=O)N1O)C32` (configuration not stated), the EC50 was over 200 µM and the IC50 came to 39.8 µM. The like results for `O=C(/C=C/c1ccc(O)cc1)CC(=O)/C=C/c1ccc(O)cc1` were, in that order, over 200 µM and 9.55 µM.

For `COc1cc(CCNC(C)=O)cc(OC)c1OC`, the EC50 was over 200 µM and the IC50 is over 200 µM. For the molecule `CC(C)C1CC=NN1C(=O)OC(C)(C)C` (configuration not stated), the EC50 was over 200 µM and the IC50 was over 200 µM. With `c1ccc(Nc2nnc(CCCCCCCCc3nnc(Nc4ccccc4)o3)o2)cc1`, the EC50 was over 200 µM and the 50% inhibitory concentration (IC50) was 107 µM. As for `O=C1CCC2COc3ccc(O)c1c32` (configuration not stated), the outcome was inactive. For `COc1c[c]([Hg][O]C(C)=O)c(OC)c(NC(=O)CC(C)=O)[c]1[Hg][O]C(C)=O`, the EC50 is over 0.724 µM and the IC50 is over 0.724 µM. In the case of `CC[C@]1(O)C[C@H]2CN(CCc3c([nH]c4ccccc34)[C@@](C(=O)OC)(c3cc4c(cc3OC)N(C=O)[C@H]3[C@@](O)(C(=O)OC)[C@H](OC(C)=O)[C@]5(CC)C=CCN6CC[C@]43[C@@H]65)C2)C1`, the EC50 was over 0.0302 µM and the IC50 came to 0.000525 µM. In the case of `Cc1coc(C)c1C(=S)Nc1ccc(Cl)c(C(=O)OC(C)C)c1`, the EC50 is 0.282 µM and the IC50 was found to be 38 µM. With `Nc1ccc(C(=O)N/C(=C\c2ccc3c(c2)OCO3)c2nc3[nH]c(=S)[nH]c(=O)c3[nH]2)cc1`, the outcome was inactive. On to `Cc1ccc(OC(=O)N2C/C(=C\c3ccccc3)C(=O)/C(=C/c3ccccc3)C2)cc1`, for which the result was inactive. With `CC1=C(C)C2(C#N)C(=O)N3C(=NC(c4ccco4)NC3c3ccco3)C2(C#N)C(c2ccco2)N1` (configuration not stated), the EC50 is over 200 µM and the IC50 is over 200 µM. As to `NCc1c(C(N)=O)ncn1Cc1ccccc1`, the result was inactive. Consider `CCN1CCC(O)(/C=C/c2ccc(C)cc2)C(C(=O)/C=C/c2ccc(C)cc2)C1` (configuration not stated), for which the EC50 was over 117 µM and the half-maximal inhibitory concentration (IC50) was 2.57 µM. Turning to `O=C1c2ccccc2C(=O)c2c(SSc3cccc4c3C(=O)c3ccccc3C4=O)cccc21`, the EC50 was over 200 µM and the IC50 was over 200 µM. Regarding `Nn1c(Sc2nc3ccccc3c(=O)n2N)nc2ccccc2c1=O`, the EC50 was over 200 µM and the IC50 amounted to 3.8 µM. Regarding `O=C(O)CN1C(=O)CSC1=S`, the EC50 was over 1290 µM and the IC50 was determined as 794 µM.
